# Data: patent US20080107623A1, “Inhibitors of Hepatitis C Virus” (Bristol-Myers Squibb Company, priority 2006, published 2008)
# How the values were obtained:
# [1] = test system: HCV replicon (Renilla luciferase reporter) in HUH-7 cells; assay: HCV replicon luciferase reporter assay; type: cell-based, HCV strain 1b; conditions: Huh-7, 96 h, 4 days
# Description: As a secondary assay, EC50 determinations from the replicon FRET assay were confirmed in a replicon luciferase reporter assay. Utilization of a replicon luciferase reporter assay was first described by Krieger et al (Krieger N, Lohmann V, and Bartenschlager R, J. Virol. 75(10):4614-4624 (2001)). The replicon construct described for our FRET assay was modified by inserting cDNA encoding a humanized form of the Renilla luciferase gene and a linker sequence fused directly to the 3′-end of the luciferase gene. This insert was introduced into the replicon construct using an AscI restriction site located in core, directly upstream of the neomycin marker gene. The adaptive mutation at position 1179 (serine to isoleucine) was also introduced (Blight K J, Kolykhalov, A A, Rice, C M, Science 290(5498):1972-1974). […] Following 4 days in a 37° C./5% CO2 incubator, cells were analyzed for Renilla Luciferase activity using the Promega Dual-Glo Luciferase Assay System. […] Plates were read on a Packard TopCount NXT using a luminescence program.
# The percentage inhibition was calculated using the formula below: % control=average luciferase signal in experimental wells (+compound) average luciferase signal in DMSO control wells (− compound)
# The values were graphed and analyzed using XLfit to obtain the EC50 value.
# human liver cathepsin B = target: T1, human liver cathepsin B (Homo sapiens, UniProt P07858); assay: Specificity assay, cathepsin B (AMC substrate); type: biochemical
# T1 construct: purchased Sigma or EMDbiosciences; host or cells: human liver (as named)
# Protocol: (§1) The specificities of compounds of the present disclosure were determined against a variety of serine proteases: human neutrophil elastase (HNE), porcine pancreatic elastase (PPE) and human pancreatic chymotrypsin and one cysteine protease: human liver cathepsin B. In all cases, a 96-well plate format protocol using colorimetric p-nitroaniline (pNA) substrate or fluorometric Amino-Methyl-Coumarin (AMC) substrate, specific for each enzyme was used as described previously (PCT Patent Application No. WO 00/09543) with some modifications. All enzymes were purchased from Sigma or EMDbiosciences while the substrates were from Bachem.
# Each pNA assay included a 2 h enzyme-inhibitor pre-incubation at room temperature followed by addition of substrate and hydrolysis to ˜15% conversion as measured on a Spectramax Pro microplate reader. The cathepsin B assay was initiated by adding substrate to a 10 min enzyme-inhibitor pre-incubation at room temperature, and the assay plate measured immediately using the Cytofluor Series 4000. Compound concentrations varied from 100 to 0.4 μM depending on their potency. […]
# (§2) The percentage of inhibition was calculated using the formula: [1−((UVinh−UVblank)/(UVctl−UVblank))]×100 […]
# [2] = target: T2, human neutrophil elastase (HNE) (Homo sapiens, UniProt P08246); assay: Specificity assay, elastase (pNA substrate); type: biochemical; conditions: read-out: HLE activity in the specificity assay (IC50)
# T2 construct: purchased Sigma or EMDbiosciences
# T2 sequence (P08246 30-267): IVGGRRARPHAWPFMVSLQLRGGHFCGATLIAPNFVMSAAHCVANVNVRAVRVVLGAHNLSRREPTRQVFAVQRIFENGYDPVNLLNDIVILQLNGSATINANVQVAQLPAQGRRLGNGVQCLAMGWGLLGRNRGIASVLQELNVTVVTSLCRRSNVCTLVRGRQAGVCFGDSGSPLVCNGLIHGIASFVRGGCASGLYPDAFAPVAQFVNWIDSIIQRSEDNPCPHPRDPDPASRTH
# Protocol: as §1
# Each pNA assay included a 2 h enzyme-inhibitor pre-incubation at room temperature followed by addition of substrate and hydrolysis to ˜15% conversion as measured on a Spectramax Pro microplate reader. The cathepsin B assay was initiated by adding substrate to a 10 min enzyme-inhibitor pre-incubation at room temperature, and the assay plate measured immediately using the Cytofluor Series 4000. Compound concentrations varied from 100 to 0.4 μM depending on their potency.
# 50 mM Tris(hydroxymethyl)aminomethane hydrochloride (Tris-HCl) pH 8, 0.5 M Sodium Sulfate (Na2SO4), 50 mM NaCl, 0.1 mM EDTA, 3% DMSO, 0.01% Tween-20 with: […]
# as §2
compound,measurement,setting,value
COc1c(O[C@@H]2C[C@H]3C(=O)N[C@]4(C(=O)NS(=O)(=O)C5CC5)C[C@H]4/C=C\CCCCC[C@H](NC(=O)OC(C)(C)C)C(=O)N3C2)ccc2c(Cl)nccc12 [Compound 3],EC50,[1],0.0055 µM
same,IC50,human liver cathepsin B,≥ 100 µM
same,IC50,[2],> 25 µM
